# Read-outs that look alike come from different tables or passages of the source.
# Key:
# DOHH = molecular target: T1, DOHH (Homo sapiens, UniProt Q9BU89); assay: Hyp'Assay, substance added after the deoxyhypusination reaction (DOHH step); assay type: biochemical; settings: 5 μM spermidine
# T1 construct: pelB leader (N); host or cells: E. coli BL21 (DE3)
# T1 sequence (Q9BU89 1-302): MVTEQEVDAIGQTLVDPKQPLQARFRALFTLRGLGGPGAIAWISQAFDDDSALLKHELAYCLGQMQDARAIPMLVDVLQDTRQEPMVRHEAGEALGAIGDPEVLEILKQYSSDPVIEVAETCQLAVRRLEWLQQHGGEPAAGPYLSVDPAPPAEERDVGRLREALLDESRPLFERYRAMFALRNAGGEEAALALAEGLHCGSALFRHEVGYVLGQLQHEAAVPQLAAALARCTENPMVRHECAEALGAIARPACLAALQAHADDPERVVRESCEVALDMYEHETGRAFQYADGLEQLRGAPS
# Protocol: We then tested the ability of DOHH inhibitors to inhibit eIF5A hypusination using the Hyp’Assay. During the Hyp’Assay, DOHH inhibitors were added after the deoxyhypusination reaction.
# To address this issue, we compared the ability of GC7 to inhibit DHPS or DOHH by adding GC7 during the first step of the Hyp’Assay; when DHPS mediates the deoxyhypusination reaction (Fig 2A), or only during the second step, when DOHH hydroxylate deoxyhypusinated eIF5A. […] When finding new hypusination inhibitors adding them during the first or the second step of the Hyp’Assay will allow us to determine if the inhibition affects DHPS or DOHH. Another way to discriminate between DHPS or DOHH inhibitors would be to use Hpu98, an antibody that recognized both hypusinated and deoxyhypusinated eIF5A, instead of Hpu24, which is specific for hypusinated eIF5A [18]. […] We performed a new Hyp’Assay by omitting DOHH in the reaction mix and using the Hpu98 antibody. First, we performed a dose response experiment with spermidine at pH: 8.0 and 9.0 (Fig 3E). […] We also tested the ability of GC7 (Fig 3F) and CPX or EDTA (Fig 3G) to inhibit DHPS.
# (§1) […] Then 10 μL containing 1 μg of DOHH with 10 μM Fe^2+ (H8FeN2O8S2^. 6H2O) were added. After 1 h proteins were analyzed by Western Blot using antibodies toward DHPS, DOHH, Hypusine, and eIF5A.
# (§2) The cell-free reaction described in 4.4 is performed in triplicates in a 96-wells plate (MaxiSorp, ThermoFisher) in the presence of 3 μg of eIF5A, 2 μg of DHPS, and 2 μg of DOHH by well. The reaction product, hypusinated eIF5A, is adsorbed onto the plate overnight at 4°C. The plate is washed (100 μL/well) thrice with PBS-T (PBS– 0.05% Tween20), then saturated with 1% non-fat dry milk in PBS-T for 2 h at room temperature. The plate is washed thrice with PBS-T and incubated overnight at 4°C with the anti-hypusine antibody (1:2000 in saturation buffer, 50 μL/well). The next day and after 5 washes with PBS-T, HRP-coupled anti-rabbit secondary antibody diluted 1:5000 in saturation buffer (50 μL/well) is added for 2 h at room temperature.
# DHPS [1] = settings: read-out: IC50 previously reported, cited from earlier work
# DHPS [2] = molecular target: T2, DHPS (Homo sapiens, UniProt P49366); assay: Hyp'Assay: cell-free eIF5A hypusination in 96-well plates (recombinant eIF5A, DHPS, DOHH; anti-hypusine antibody Hpu24), substance present in the DHPS step; assay type: biochemical
# T2 construct: host or cells: E. coli BL21 (DE3)
# T2 sequence (P49366 1-369): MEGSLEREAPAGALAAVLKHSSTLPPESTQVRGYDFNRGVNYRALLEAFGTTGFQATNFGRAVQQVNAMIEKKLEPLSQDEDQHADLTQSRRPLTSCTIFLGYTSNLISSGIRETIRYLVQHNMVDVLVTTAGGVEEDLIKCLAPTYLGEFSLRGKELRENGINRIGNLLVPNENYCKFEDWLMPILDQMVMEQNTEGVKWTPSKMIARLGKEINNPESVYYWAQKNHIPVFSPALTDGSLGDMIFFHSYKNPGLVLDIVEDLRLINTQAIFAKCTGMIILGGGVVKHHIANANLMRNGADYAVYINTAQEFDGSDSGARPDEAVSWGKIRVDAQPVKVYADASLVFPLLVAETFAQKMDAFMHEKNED
# Protocol: The principle of the Hyp’Assay (Fig 2A) is to perform eIF5A hypusination reaction in 96-well plates, allow eIF5A to adsorb to the plate, incubate with an anti-hypusine antibody and a secondary antibody conjugated to HRP and reveal hypusination using TMB as a substrate.
# as §1, §2
# [3] = test system: eIF5A hypusination in MCF7 cells; assay: eIF5A hypusination in intact MCF7 cells, Western blot; assay type: cell-based, human; settings: 24 h
# Protocol: We tested the ability of the GC7 analogs to inhibit hypusination in intact cells. MCF-7 cells (Fig 5B), a classical model of breast cancer cell line, and HT29 cells (Fig 5C), a cell model of colorectal cancer, were treated with 40 μM of GC7, 1, 2, 3, and 4 for 24h. Cells were lysed and analyzed by Western blot. As observed, none of the molecules modified eIF5A expression. […] GC7 analogs inhibited hypusination from 35 to 55%.
# The human breast cancer cell line MCF7 (HTB-22 ATCC) and colorectal adenocarcinoma HT29 (HTB-38 ATCC) were cultured in DMEM (Gibco) supplemented with 10% FBS (Dutscher), 10 U/mL penicillin, and […] streptomycin. 1 mM of aminoguanidine was added to the medium to inhibit the degradation of GC7 and polyamines by amine oxidase from the serum and the production of reactive oxygen species. Cells were maintained at 37°C, 5% CO2 in a humid atmosphere.
# After treatment, cells were washed with ice-cold PBS and lysed in RIPA Buffer (50 mM Tris pH 7.5, 150 mM NaCl, 0.1% SDS, 0.5% Na Deoxycholate, 5 mM NaF, 2.5 mM Na4P2O7, 1% NP4O) containing a protease inhibitor cocktail (complete Roche). 10 μg of proteins were separated by SDS PAGE and transferred to a PVDF membrane (Immobilon-P Millipore). The membranes were probed with the appropriate primary antibody that was detected by horseradish peroxidase-conjugated secondary antibody (Jackson Immunoresearch) and visualized by chemiluminescence (ECL Amersham RPN 3244) using a Fuji LAS-4000 imager. ImageJ® software was used to quantify band intensity and the ratios of proteins of interest were normalized to a loading control. Full-length Western blots are provided in the supplementary data (S19, S20 Figs).
smiles,measurement,setting,value
"N=C(N)NCCCCCCCN [GC7, N1-guanyl-1,7-diaminoheptane]","Relative hypusination of eIF5A, Mean (quantification from Figure 3D)","DOHH; GC7 added during the DOHH step, CTRL 100,0","99,58 a.u"
same,effect on hypusination,DOHH; added only during the hydroxylation step (DOHH),no inhibition was observed
same,IC50,DHPS [1]; ref 25,17 nM
same,IC50,DHPS [1]; ref 26,50 nM
same,concentration at which inhibition was complete,DHPS [2]; 5 μM spermidine,1 µM
same,concentration at which inhibition was detectable,DHPS [2]; 5 μM spermidine,0.01 µM
same,concentration at which the inhibitory effect began,DHPS [2]; 100 μM spermidine,0.1 µM
same,concentration of maximal inhibitory effect,DHPS [2]; 100 μM spermidine,10 µM
same,"Relative hypusination of eIF5A, Mean (quantification from Figure 3D)","DHPS [2]; GC7 added during the DHPS step, 5 μM spermidine, CTRL 100,0","4,227 a.u"
same,"hypusination signal, Mean (quantification from Figure 3A)","DHPS [2]; Spermidine 5 µM, GC7 1 (µM)",54.02
same,"hypusination signal, Mean (quantification from Figure 3A)","DHPS [2]; Spermidine 5 µM, GC7 10 (µM)",19.57
same,"hypusination signal, Mean (quantification from Figure 3A)","DHPS [2]; Spermidine 5 µM, GC7 100 (µM)",16.79
same,"hypusination signal, Mean (quantification from Figure 3A)","DHPS [2]; Spermidine 5 µM, GC7 1000 (µM)",0.5077
same,"hypusination signal, Mean (quantification from Figure 3A)","DHPS [2]; Spermidine 5 µM, GC7 10000 (µM)",0
same,"hypusination signal, Mean (quantification from Figure 3A)","DHPS [2]; Spermidine 100 µM, GC7 1 (µM)",100
same,"hypusination signal, Mean (quantification from Figure 3A)","DHPS [2]; Spermidine 100 µM, GC7 10 (µM)",95.15
same,"hypusination signal, Mean (quantification from Figure 3A)","DHPS [2]; Spermidine 100 µM, GC7 100 (µM)",91.8
same,"hypusination signal, Mean (quantification from Figure 3A)","DHPS [2]; Spermidine 100 µM, GC7 1000 (µM)",51.9
same,"hypusination signal, Mean (quantification from Figure 3A)","DHPS [2]; Spermidine 100 µM, GC7 10000 (µM)",0.07615
same,effect on hypusination,"DHPS [2]; added during the first step (DHPS), 5 μM spermidine",total inhibition of hypusination
same,inhibition at 1 µM,"DHPS [2]; at 1 µM, 5 µM spermidine (reviewer's reading of Fig. 3)",~95%
same,"hypusinated eIF5A, Western blot quantification, Mean (Figure 5B)","[3]; 40 μM, Ctrl 100, 4 experiments",20.45
same,inhibition at 40 µM,[3]; Homo sapiens,80%
